From US8927531B2, “Indanyloxydihydrobenzofuranylacetic acids” (Boehringer Ingelheim International GmbH, priority 2013, dated 2015) come the findings set out here.

The assay has as its target human GPR40 receptor (Homo sapiens, UniProt O14842). Description: IP1 accumulation measurements using the IPOne assay system in 1321N1 cells stably expressing human GPR40 receptor. To be noted: stimulation 1 h at 37° C. The class given is cell-based. Here is the method: IP1 accumulation measurements using the IPOne assay system—1321N1 cells stably expressing human GPR40 receptor (Euroscreen, Belgium) are seeded 24 h before the assay in white 384-well plates in culture medium containing 10% FCS, 1% Na-Pyruvate and 400 μg/mL G418. IP1 is assayed according to the manufacturer's description (Cisbio Bioassays, France). In brief, the assay is started by substitution of the culture medium by stimulation buffer (Hepes 10 mM, CaCl2 1 mM, MgCl2 0.5 mM, KCl 4.2 mM, NaCl 146 mM, glucose 5.5 mM and LiCl 50 mM, pH 7.4). Cells are stimulated for 1 h at 37° C., 5% CO2 by addition of the compounds that are diluted in stimulation buffer containing LiCl. Assays are stopped by adding HTRF-conjugates (IP1-d2 and Anti-IP1 cryptate Tb) and lysis buffer, provided by the manufacturer. After an incubation time of 1 h at room temperature plates are measured using an EnVision™, Perkin Elmer. The obtained fluorescence ratios at 665/615 […] are then used to calculate the pEC50 values using Assay Explorer 3.3 Software (Accelrys, Inc.) by interpolation using an IP1 reference curve and subsequent sigmoidal curve fitting allowing for a variable hill slope.

Structures are written as SMILES.

Chain of human GPR40 receptor (O14842 whole entry): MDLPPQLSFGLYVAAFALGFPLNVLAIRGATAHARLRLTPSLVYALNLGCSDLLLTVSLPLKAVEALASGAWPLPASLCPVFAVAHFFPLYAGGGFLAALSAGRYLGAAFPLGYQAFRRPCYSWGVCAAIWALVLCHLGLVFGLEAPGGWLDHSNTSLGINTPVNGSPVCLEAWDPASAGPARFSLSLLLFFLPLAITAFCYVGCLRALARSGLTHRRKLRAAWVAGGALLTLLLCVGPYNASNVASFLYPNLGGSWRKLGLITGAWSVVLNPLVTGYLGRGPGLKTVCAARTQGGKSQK

The EC50 is the midpoint of the concentration-response curve. Compound `COC1CCN(Cc2c(C(F)(F)F)ccc3c2CC[C@H]3Oc2ccc3c(c2)OC[C@H]3CC(=O)O)CC1` [Example 10, {(S)-6-[(R)-4-(4-Methoxy-piperidin-1-ylmethyl)-5-trifluoromethyl-indan-1-yloxy]-2,3-dihydro-benzofuran-3-yl}-acetic acid] returned a concentration for a half-maximal effect (EC50) of 5 nM. The result for `O=C(O)C[C@@H]1COc2cc(O[C@@H]3CCc4c3ccc(C(F)(F)F)c4CN3CC4CCC(C3)O4)ccc21` [Example 24, {(S)-6-[(R)-4-(8-Oxa-3-aza-bicyclo[3.2.1]oct-3-ylmethyl)-5-trifluoromethyl-indan-1-yloxy]-2,3-dihydro-benzofuran-3-yl}-acetic acid] reads 14 nM; that for `Cc1nc2c(o1)CCN(Cc1c(C(F)(F)F)ccc3c1CC[C@H]3Oc1ccc3c(c1)OC[C@H]3CC(=O)O)C2` [Example 35, {(S)-6-[(R)-4-(2-Methyl-6,7-dihydro-oxazolo[4,5-c]pyridin-5-ylmethyl)-5-trifluoromethyl-indan-1-yloxy]-2,3-dihydro-benzofuran-3-yl}-acetic acid], 3 nM. `Cc1nc2c(s1)CN(Cc1c(C(F)(F)F)ccc3c1CC[C@H]3Oc1ccc3c(c1)OC[C@H]3CC(=O)O)CC2` [Example 6, {(S)-6-[(R)-4-(2-Methyl-4,5,6,7-tetrahydro-thiazolo[5,4-c]pyridin-5-ylmethyl)-5-trifluoromethyl-indan-1-yloxy]-2,3-dihydro-benzofuran-3-yl}-acetic acid]: it took 2 nM to reach a half-maximal effect (EC50). For `O=C(O)C[C@@H]1COc2cc(O[C@@H]3CCc4c3ccc(C(F)(F)F)c4CN3CCc4ccsc4C3)ccc21` [Example 32, {(S)-6-[(R)-4-(4,7-Dihydro-thieno[2,3-c]pyridin-6-ylmethyl)-5-trifluoromethyl-indan-1-yloxy]-2,3-dihydro-benzofuran-3-yl}-acetic acid], the EC50 turned out to be 2 nM. With `O=C(O)C[C@@H]1COc2cc(O[C@@H]3CCc4c3ccc(C(F)(F)F)c4CN3CCSCC3)ccc21` [Example 3, {(S)-6-[(R)-4-Thiomorpholin-4-ylmethyl-5-trifluoromethyl-indan-1-yloxy]-2,3-dihydro-benzofuran-3-yl}-acetic acid], the EC50 stood at 3 nM. Compound `CC(C)(C)OC(=O)N1CCN(Cc2c(C(F)(F)F)ccc3c2CC[C@H]3Oc2ccc3c(c2)OC[C@H]3CC(=O)O)CC1` [Example 2, {(S)-6-[(R)-4-(4-tert-Butoxycarbonyl-piperazin-1-ylmethyl)-5-trifluoromethyl-indan-1-yloxy]-2,3-dihydro-benzofuran-3-yl}-acetic acid] gave an EC50 of 20 nM.

For `O=C(O)C[C@@H]1COc2cc(O[C@@H]3CCc4c3ccc(C(F)(F)F)c4CN3CCNCC3)ccc21` [Example 15, {(S)-6-[(R)-4-piperazin-1-ylmethyl-5-trifluoromethyl-indan-1-yloxy]-2,3-dihydro-benzofuran-3-yl}-acetic acid], a half-maximal response (EC50) required 468 nM. On to `O=C(O)C[C@@H]1COc2cc(O[C@@H]3CCc4c3ccc(C(F)(F)F)c4CN3C4CCCC3CC4)ccc21` [Example 25, {(S)-6-[(R)-4-(8-Aza-bicyclo[3.2.1]oct-8-ylmethyl)-5-trifluoromethyl-indan-1-yloxy]-2,3-dihydro-benzofuran-3-yl}-acetic acid], for which the response was half-maximal at 15 nM (EC50). For `O=C(O)C[C@@H]1COc2cc(O[C@@H]3CCc4c3ccc(C(F)(F)F)c4CN3CCn4ccnc4C3)ccc21` [Example 27, {(S)-6-[(R)-4-(5,6-Dihydro-8H-imidazo[1,2-a]pyrazin-7-ylmethyl)-5-trifluoromethyl-indan-1-yloxy]-2,3-dihydro-benzofuran-3-yl}-acetic acid], the half-maximal effective concentration (EC50) stood at 17 nM. For `O=C(O)C[C@@H]1COc2cc(O[C@@H]3CCc4c3ccc(C(F)(F)F)c4CN3CCC4(CCCO4)CC3)ccc21` [Example 11, {(S)-6-[(R)-4-(1-Oxa-8-aza-spiro[4.5]dec-8-ylmethyl)-5-trifluoromethyl-indan-1-yloxy]-2,3-dihydro-benzofuran-3-yl}-acetic acid], the EC50 was determined as 6 nM. To `O=C(O)C[C@@H]1COc2cc(O[C@@H]3CCc4c3ccc(C(F)(F)F)c4CN3CCC(CO)CC3)ccc21` [Example 13, {(S)-6-[(R)-4-(4-Hydroxymethyl-piperidin-1-ylmethyl)-5-trifluoromethyl-indan-1-yloxy]-2,3-dihydro-benzofuran-3-yl}-acetic acid] belongs 9 nM; to `Cn1cc2c(n1)CCN(Cc1c(C(F)(F)F)ccc3c1CC[C@H]3Oc1ccc3c(c1)OC[C@H]3CC(=O)O)C2` [Example 31, {(S)-6-[(R)-4-(2-Methyl-2,4,6,7-tetrahydro-pyrazolo[4,3-c]pyridin-5-ylmethyl)-5-trifluoromethyl-indan-1-yloxy]-2,3-dihydro-benzofuran-3-yl}-acetic acid], 2 nM; to `O=C(O)C[C@@H]1COc2cc(O[C@@H]3CCc4c3ccc(C(F)(F)F)c4CN3CCCCC3)ccc21` [Example 5, {(S)-6-[(R)-4-Piperidin-1-ylmethyl-5-trifluoromethyl-indan-1-yloxy]-2,3-dihydro-benzofuran-3-yl}-acetic acid], 5 nM. `O=C(O)C[C@@H]1COc2cc(O[C@@H]3CCc4c3ccc(C(F)(F)F)c4CN3CCc4ccccc4C3)ccc21` [Example 29, {(S)-6-[(R)-4-(3,4-Dihydro-isoquinolin-2-ylmethyl)-5-trifluoromethyl-indan-1-yloxy]-2,3-dihydro-benzofuran-3-yl}-acetic acid] yielded an EC50 of 3 nM. `O=C(O)C[C@@H]1COc2cc(O[C@@H]3CCc4c3ccc(C(F)(F)F)c4CN3CCC(F)(F)CC3)ccc21` [Example 7, {(S)-6-[(R)-4-(4,4-Difluoro-piperidin-1-ylmethyl)-5-trifluoromethyl-indan-1-yloxy]-2,3-dihydro-benzofuran-3-yl}-acetic acid] registered an EC50 of 3 nM.

As for `CC(C)OC(=O)N1CCN(Cc2c(C(F)(F)F)ccc3c2CC[C@H]3Oc2ccc3c(c2)OC[C@H]3CC(=O)O)CC1` [Example 22, {(S)-6-[(R)-4-(4-Isopropoxycarbonyl-piperazin-1-ylmethyl)-5-trifluoromethyl-indan-1-yloxy]-2,3-dihydro-benzofuran-3-yl}-acetic acid], the EC50 stood at 14 nM.

Consider `CN1CCN(Cc2c(C(F)(F)F)ccc3c2CC[C@H]3Oc2ccc3c(c2)OC[C@H]3CC(=O)O)CC1=O` [Example 26, {(S)-6-[(R)-4-(4-Methyl-3-oxo-piperazin-1-ylmethyl)-5-trifluoromethyl-indan-1-yloxy]-2,3-dihydro-benzofuran-3-yl}-acetic acid], for which the EC50 stood at 26 nM. The result for `O=C(O)C[C@@H]1COc2cc(O[C@@H]3CCc4c3ccc(C(F)(F)F)c4CN3CCn4nccc4C3)ccc21` [Example 33, {(S)-6-[(R)-4-(6,7-Dihydro-pyrazolo[1,5-a]pyrazin-5-ylmethyl)-5-trifluoromethyl-indan-1-yloxy]-2,3-dihydro-benzofuran-3-yl}-acetic acid] reads 2 nM; that for `O=C(O)C[C@@H]1COc2cc(O[C@@H]3CCc4c3ccc(C(F)(F)F)c4CN3CCCOCC3)ccc21` [Example 9, {(S)-6-[(R)-[1,4]Oxazepan-4-ylmethyl-5-trifluoromethyl-indan-1-yloxy]-2,3-dihydro-benzofuran-3-yl}-acetic acid], 3 nM.
